Columns and labels:
M1 chimera = M1 chimera (Caenorhabditis elegans, UniProt G5ECD3+G5EE10); format: cell-based, C. elegans; conditions: at EC50 GABA
Procedure: (§1) Electrophysiology: Plasmids containing wild-type and mutagenized GABAA receptor subunits were linearized and transcribed in vitro using T3 RNA polymerase (mMessage mMachine T3 kit, Ambion, Austin Tex.). UNC-49B mRNA was injected into Xenopus laevis oocytes at 0.5 μg/μl either alone, or in a mixture with 0.5 μg/μl UNC-49C. […] The injection volume ranged between 27.6 nl to 50.6 nl. […] Cells were voltage clamped at −60 mV. All recordings were performed at room temperature.

M1-R = M1-R (Caenorhabditis elegans, UniProt G5ECD3+G5EE10, N305R, form not given); format: cell-based, C. elegans; conditions: at EC50 GABA
Sequence of M1-R (G5ECD3 entry or part of it, stated change not applied): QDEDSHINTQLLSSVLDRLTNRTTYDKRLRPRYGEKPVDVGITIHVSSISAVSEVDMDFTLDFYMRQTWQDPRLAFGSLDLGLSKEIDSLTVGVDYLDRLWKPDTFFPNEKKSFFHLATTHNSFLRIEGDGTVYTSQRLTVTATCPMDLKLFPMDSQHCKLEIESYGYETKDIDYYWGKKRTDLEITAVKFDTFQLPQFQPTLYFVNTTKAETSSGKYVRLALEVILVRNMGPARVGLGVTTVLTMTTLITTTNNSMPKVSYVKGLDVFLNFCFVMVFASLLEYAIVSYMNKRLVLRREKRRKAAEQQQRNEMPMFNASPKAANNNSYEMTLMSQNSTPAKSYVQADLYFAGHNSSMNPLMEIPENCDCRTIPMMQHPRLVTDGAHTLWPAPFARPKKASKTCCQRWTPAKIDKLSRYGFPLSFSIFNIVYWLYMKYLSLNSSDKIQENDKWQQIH
Sequence of M1-R (G5EE10 256-283, stated change not applied): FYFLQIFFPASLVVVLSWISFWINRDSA
Procedure: as §1

TM chimera = TM chimera (Caenorhabditis elegans, UniProt G5ECD3+G5EE10); format: cell-based, C. elegans; conditions: TM chimera homomer; 5 μM PS
Sequence of TM chimera (G5EE10 256-448, change not shown): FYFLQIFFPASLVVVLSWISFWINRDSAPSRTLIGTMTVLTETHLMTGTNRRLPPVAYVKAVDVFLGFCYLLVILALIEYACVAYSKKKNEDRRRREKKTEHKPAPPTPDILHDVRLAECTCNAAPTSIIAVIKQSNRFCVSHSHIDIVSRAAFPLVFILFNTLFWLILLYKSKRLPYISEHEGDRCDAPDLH
Sequence of TM chimera (G5ECD3 23-254, change not shown): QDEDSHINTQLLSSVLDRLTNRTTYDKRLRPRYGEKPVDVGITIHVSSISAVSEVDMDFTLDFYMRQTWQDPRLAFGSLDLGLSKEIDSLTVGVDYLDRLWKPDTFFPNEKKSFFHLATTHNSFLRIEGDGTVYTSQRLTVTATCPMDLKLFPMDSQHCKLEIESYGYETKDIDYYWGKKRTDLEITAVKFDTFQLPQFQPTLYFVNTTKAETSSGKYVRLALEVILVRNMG
Procedure: as §1

UNC-49B homomer = UNC-49B homomer (Caenorhabditis elegans, UniProt G5ECD3); format: cell-based, C. elegans; conditions: UNC-49B homomer
Sequence of UNC-49B homomer (G5ECD3 entry or part of it): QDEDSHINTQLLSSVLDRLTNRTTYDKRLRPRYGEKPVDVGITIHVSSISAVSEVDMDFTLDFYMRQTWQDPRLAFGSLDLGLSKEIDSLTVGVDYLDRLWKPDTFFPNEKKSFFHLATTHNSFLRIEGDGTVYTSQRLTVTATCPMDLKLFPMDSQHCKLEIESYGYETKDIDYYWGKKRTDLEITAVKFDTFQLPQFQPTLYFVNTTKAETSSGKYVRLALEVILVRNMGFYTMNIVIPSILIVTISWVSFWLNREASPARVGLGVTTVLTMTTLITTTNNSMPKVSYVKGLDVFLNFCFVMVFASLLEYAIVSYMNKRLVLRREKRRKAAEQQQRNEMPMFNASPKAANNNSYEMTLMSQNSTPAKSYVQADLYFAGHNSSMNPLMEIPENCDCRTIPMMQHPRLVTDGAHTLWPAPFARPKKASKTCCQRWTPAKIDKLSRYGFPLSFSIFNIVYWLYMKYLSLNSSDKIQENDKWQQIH
Procedure: as §1

UNC-49B-PS7 = UNC-49B-PS7 (Caenorhabditis elegans, UniProt G5ECD3, I262F/I265S/M258L/N259Q/N305R/S264A/T257F); format: cell-based, C. elegans; conditions: UNC-49B-PS7; at EC50 GABA
Sequence of UNC-49B-PS7 (G5ECD3 23-506, stated change not applied): as the sequence (G5ECD3 entry or part of it) above
Procedure: as §1

X(T269V) = X(T269V) (Caenorhabditis elegans, UniProt G5ECD3, I262F/M258L/N259Q/N305R/S264A/T257F/T269V/V261F); format: cell-based, C. elegans; conditions: at EC50 GABA
Sequence of X(T269V) (G5ECD3 23-506, stated change not applied): as the sequence (G5ECD3 entry or part of it) above
Procedure: as §1

X(V273I) = X(V273I) (Caenorhabditis elegans, UniProt G5ECD3, I262F/M258L/N259Q/N305R/S264A/T257F/V261F/V273I); format: cell-based, C. elegans; conditions: at EC50 GABA
Sequence of X(V273I) (G5ECD3 23-506, stated change not applied): as the sequence (G5ECD3 entry or part of it) above
Procedure: as §1

XZ chimera = XZ chimera (Caenorhabditis elegans, UniProt G5ECD3, A281S/E280D/I262F/L277I/M258L/N259Q/N305R/S264A/S282A/T257F/V261F); format: cell-based, C. elegans; conditions: at EC50 GABA
Sequence of XZ chimera (G5ECD3 23-506, stated change not applied): as the sequence (G5ECD3 entry or part of it) above
Procedure: as §1

Y chimera = Y chimera (Caenorhabditis elegans, UniProt G5ECD3, I265S/I267V/I270L/N259Q/N305R/T269V/V261F/V273I); format: cell-based, C. elegans; conditions: Y chimera; at EC50 GABA
Sequence of Y chimera (G5ECD3 23-506, stated change not applied): as the sequence (G5ECD3 entry or part of it) above
Procedure: as §1

linker chimera = linker chimera (Caenorhabditis elegans, UniProt G5ECD3, N305R, form not given); format: cell-based, C. elegans; conditions: at EC50 GABA
Sequence of linker chimera (G5ECD3 23-506, stated change not applied): as the sequence (G5ECD3 entry or part of it) above
Procedure: as §1

UNC-49B/C heteromer = UNC-49B/C heteromer (Caenorhabditis elegans, UniProt G5ECD3+G5EE10); format: cell-based; conditions: UNC-49B/C heteromer
Sequence of UNC-49B/C heteromer (G5EE10 entry or part of it): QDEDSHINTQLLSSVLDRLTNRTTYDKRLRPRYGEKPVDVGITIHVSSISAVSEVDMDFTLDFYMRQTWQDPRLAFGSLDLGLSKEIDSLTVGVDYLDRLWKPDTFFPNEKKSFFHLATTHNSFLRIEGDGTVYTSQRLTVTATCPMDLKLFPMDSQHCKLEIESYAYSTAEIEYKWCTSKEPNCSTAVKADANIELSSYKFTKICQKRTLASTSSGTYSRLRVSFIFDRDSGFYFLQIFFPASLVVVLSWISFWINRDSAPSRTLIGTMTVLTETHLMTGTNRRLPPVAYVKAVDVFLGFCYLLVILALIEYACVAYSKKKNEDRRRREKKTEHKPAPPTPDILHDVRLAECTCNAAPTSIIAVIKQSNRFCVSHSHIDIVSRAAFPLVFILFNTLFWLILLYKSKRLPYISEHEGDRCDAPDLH
Sequence of UNC-49B/C heteromer (G5ECD3 entry or part of it): as the sequence (G5ECD3 entry or part of it) above
Procedure: as §1

M1-M2-linker chimera = M1-M2-linker chimera (Caenorhabditis elegans, UniProt G5ECD3+G5EE10); format: cell-based, C. elegans; conditions: 5 μM PS, 100 μM GABA
Sequence of M1-M2-linker chimera (G5ECD3 23-506, change not shown): as the sequence (G5ECD3 entry or part of it) above
Sequence of M1-M2-linker chimera (G5EE10 256-315, change not shown): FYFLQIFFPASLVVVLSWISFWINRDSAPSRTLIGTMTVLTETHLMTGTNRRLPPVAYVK
Procedure: as §1
The strategy represents a deletion of UNC-49C material from the carboxy to amino terminal end of the transmembrane portion of the subunit, which is then replaced with UNC-49B sequences.

QF-R [1] = molecular target: QF-R (Caenorhabditis elegans, UniProt G5ECD3, N259Q/N305R/V261F); format: cell-based, C. elegans; conditions: QF-R; at EC50 GABA
Sequence of QF-R (Caenorhabditis elegans, UniProt G5ECD3, N259Q/N305R/V261F) (G5ECD3 23-506, stated change not applied): as the sequence (G5ECD3 entry or part of it) above
Procedure: as §1
(§2) The conserved residues were tested in the UNC-49C M1 domain in a similar way. […] To test the importance of these conserved residues, they were substituted into an UNC-49B subunit with the linker mutation N305R to create the ‘QF-R’ subunit (FIG. 3c).

QF-R [2] = format: cell-based, C. elegans
Procedure: as §1, §2

Y(S264A) = Y(S264A) (Caenorhabditis elegans, UniProt G5ECD3, I265S/I267V/I270L/N259Q/N305R/S264A/T269V/V261F/V273I); format: cell-based, C. elegans; conditions: at EC50 GABA
Sequence of Y(S264A) (G5ECD3 23-506, stated change not applied): as the sequence (G5ECD3 entry or part of it) above
Procedure: as §1
(§3) Important residues in the X segment were tested by substituting UNC-49C residues into the Y chimera. […] These divergent X segment residues were tested by mutating them from UNC-49B to UNC-49C amino acids in the Y chimera background.

Y(T257F) = Y(T257F) (Caenorhabditis elegans, UniProt G5ECD3, I265S/I267V/I270L/N259Q/N305R/T257F/T269V/V261F/V273I); format: cell-based, C. elegans
Sequence of Y(T257F) (G5ECD3 23-506, stated change not applied): as the sequence (G5ECD3 entry or part of it) above
Procedure: as §1, §3

Y(T257F/M258L) = Y(T257F/M258L) (Caenorhabditis elegans, UniProt G5ECD3, I265S/I267V/I270L/M258L/N259Q/N305R/T257F/T269V/V261F/V273I); format: cell-based, C. elegans; conditions: at EC50 GABA
Sequence of Y(T257F/M258L) (G5ECD3 23-506, stated change not applied): as the sequence (G5ECD3 entry or part of it) above
Procedure: as §1, §3

Y(T257F/M258L/S264A) = Y(T257F/M258L/S264A) (Caenorhabditis elegans, UniProt G5ECD3, I265S/I267V/I270L/M258L/N259Q/N305R/S264A/T257F/T269V/V261F/V273I); format: cell-based, C. elegans; conditions: at EC50 GABA
Sequence of Y(T257F/M258L/S264A) (G5ECD3 23-506, stated change not applied): as the sequence (G5ECD3 entry or part of it) above
Procedure: as §1, §3

Y(T257F/S264A) = Y(T257F/S264A) (Caenorhabditis elegans, UniProt G5ECD3, I265S/I267V/I270L/N259Q/N305R/S264A/T257F/T269V/V261F/V273I); format: cell-based, C. elegans
Sequence of Y(T257F/S264A) (G5ECD3 23-506, stated change not applied): as the sequence (G5ECD3 entry or part of it) above
Procedure: as §1, §3

Sequence of M1 chimera (G5ECD3 entry or part of it, change not shown): as the sequence (G5ECD3 entry or part of it, stated change not applied) above

Q: pregnenolone sulfate [PS] was tested. Which “PS Slope coefficient” value (M1 chimera) did it give?
A: 0.9 ± 0.1 (n = 4)

Q: What about the “PS Slope coefficient” value (M1-R) of the same substance?
A: 1.2 ± 0.1 (n = 8)

Q: And the PS inhibition (TM chimera)?
A: strongly inhibited

Q: What about the “inhibition of GABA-evoked current” value (UNC-49B homomer; 100 μM PS, EC50 GABA) of the same substance?
A: 40%

Q: And the “PS Slope coefficient” value (UNC-49B homomer; at EC50 GABA)?
A: 0.7

Q: What about the “PS Slope coefficient” value (UNC-49B-PS7) of the same substance?
A: 1.0 ± 0.0

Q: And the “PS Slope coefficient” value (X(T269V))?
A: 1.2 ± 0.1

Q: What about the “PS Slope coefficient” value (X(V273I)) of the same substance?
A: 1.0 ± 0.02

Q: What about the “PS Slope coefficient” value (XZ chimera) of the same substance?
A: 1.1 ± .06

Q: And the “PS Slope coefficient” value (Y chimera)?
A: 10.4 ± 1.3

Q: What about the “PS Slope coefficient” value (linker chimera) of the same substance?
A: 1.3 ± 0.2 (n = 5)

Q: And the “inhibition of GABA-evoked current” value (UNC-49B/C heteromer; 100 μM PS, EC50 GABA)?
A: 95%

Q: What about the “PS Slope coefficient” value (UNC-49B/C heteromer; at EC50 GABA) of the same substance?
A: 0.9 ± 0.1 (n = 4)

Q: And the PS sensitivity (M1-M2-linker chimera)?
A: equally sensitive to 5 μM PS as the TM chimera

Q: What about the “PS Slope coefficient” value (QF-R [1]) of the same substance?
A: 1.5 ± 0.5 (n = 6)

Q: And the “fold more sensitive to PS than N305R” value (QF-R [2]; QF-R versus N305R)?
A: 2.1 fold

Q: What about the “fold less sensitive to PS than the double chimera” value (QF-R [2]; QF-R versus double chimera) of the same substance?
A: 6.7 fold

Q: What about the “PS Slope coefficient” value (Y(S264A)) of the same substance?
A: 5.3 ± 1.8

Q: And the “reduction of the holding current by PS alone, relative to EC50 GABA-evoked current” value (Y(T257F); T257F point mutant, 100 μM PS)?
A: 6-20%

Q: What about the “PS Slope coefficient” value (Y(T257F); Y(T257F), at EC50 GABA) of the same substance?
A: 1.3 ± 0.06

Q: What about the “PS Slope coefficient” value (Y(T257F/M258L)) of the same substance?
A: 2.3 ± 0.2

Q: What about the “PS Slope coefficient” value (Y(T257F/M258L/S264A)) of the same substance?
A: 1.44 ± 0.1

Q: And the “reduction of the holding current by PS alone, relative to EC50 GABA-evoked current” value (Y(T257F/S264A); T257F/S264A point mutant, 100 μM PS)?
A: 6-20%

Q: What about the “PS Slope coefficient” value (Y(T257F/S264A); Y(T257F/S264A), at EC50 GABA) of the same substance?
A: 0.9 ± 0.08

Source: patent US8183001B2 (priority 2006, dated 2012)
